Laboratory results: PubChem BioAssay (NCI)
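1) Cells in 96-well plates. 2) Compound, 48 h, 5 concentrations. 3) Linear interpolation between surrounding doses. 4) Unreached endpoint = highest concentration. GI50 = concentration required for 50% inhibition of growth. TGI: concentration producing complete growth inhibition.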

Legend:
Assay in all cases: NCI-60 cell line screen, 48 h
786-0 renal = test system: 786-0 renal
A498 renal = test system: A498 renal
A549 NSCLC = test system: A549 NSCLC
ACHN renal = test system: ACHN renal
BT-549 breast = test system: BT-549 breast
CAKI-1 renal = test system: CAKI-1 renal
CCRF-CEM leukemia = test system: CCRF-CEM leukemia
COLO 205 colon = test system: COLO 205 colon
DU-145 prostate = test system: DU-145 prostate
EKVX NSCLC = test system: EKVX NSCLC
HCC-2998 colon = test system: HCC-2998 colon
HCT-116 colon = test system: HCT-116 colon
HCT-15 colon = test system: HCT-15 colon
HL-60(TB) leukemia = test system: HL-60(TB) leukemia
HOP-62 NSCLC = test system: HOP-62 NSCLC
HOP-92 NSCLC = test system: HOP-92 NSCLC
HS 578T breast = test system: HS 578T breast
HT29 colon = test system: HT29 colon
IGROV1 ovarian = test system: IGROV1 ovarian
K-562 leukemia = test system: K-562 leukemia
KM12 colon = test system: KM12 colon
LOX IMVI melanoma = test system: LOX IMVI melanoma
M14 melanoma = test system: M14 melanoma
MALME-3M melanoma = test system: MALME-3M melanoma
MCF7 breast = test system: MCF7 breast
MDA-MB-231 breast = test system: MDA-MB-231 breast
MDA-MB-435 = test system: MDA-MB-435
MOLT-4 leukemia = test system: MOLT-4 leukemia
NCI-H226 lung = test system: NCI-H226 lung
NCI-H23 lung = test system: NCI-H23 lung
NCI-H460 lung = test system: NCI-H460 lung
NCI-H522 lung = test system: NCI-H522 lung
NCI/ADR-RES ovarian = test system: NCI/ADR-RES ovarian
OVCAR-3 ovarian = test system: OVCAR-3 ovarian
OVCAR-4 ovarian = test system: OVCAR-4 ovarian
OVCAR-5 ovarian = test system: OVCAR-5 ovarian
OVCAR-8 ovarian = test system: OVCAR-8 ovarian
PC-3 prostate = test system: PC-3 prostate
RPMI-8226 leukemia = test system: RPMI-8226 leukemia
RXF 393 renal = test system: RXF 393 renal
SF-268 CNS = test system: SF-268 CNS
SF-295 CNS = test system: SF-295 CNS
SF-539 CNS = test system: SF-539 CNS
SK-MEL-2 melanoma = test system: SK-MEL-2 melanoma
SK-MEL-28 melanoma = test system: SK-MEL-28 melanoma
SK-MEL-5 melanoma = test system: SK-MEL-5 melanoma
SK-OV-3 ovarian = test system: SK-OV-3 ovarian
SN12C renal = test system: SN12C renal
SNB-19 CNS = test system: SNB-19 CNS
SNB-75 CNS = test system: SNB-75 CNS
SR leukemia = test system: SR leukemia
SW-620 colon = test system: SW-620 colon
T-47D breast = test system: T-47D breast
TK-10 renal = test system: TK-10 renal
U251 CNS = test system: U251 CNS
UACC-257 melanoma = test system: UACC-257 melanoma
UACC-62 melanoma = test system: UACC-62 melanoma
UO-31 renal = test system: UO-31 renal

Structure (SMILES): CCOc1ccccc1C(=O)N1CCN(c2cc(Cl)cc(Cl)c2)CC1
- GI50 (786-0 renal): 62.4 nM
- TGI (786-0 renal): 14800 nM
- GI50 (A498 renal): 28.8 nM
- TGI (A498 renal): 4360 nM
- GI50 (A549 NSCLC): 42.9 nM
- TGI (A549 NSCLC): 15800 nM
- GI50 (ACHN renal): 51 nM
- TGI (ACHN renal): 14600 nM
- GI50 (BT-549 breast): 42.9 nM
- TGI (BT-549 breast): 4340 nM
- GI50 (CAKI-1 renal): 25.7 nM
- TGI (CAKI-1 renal): 12500 nM
- GI50 (CCRF-CEM leukemia): 35.7 nM
- TGI (CCRF-CEM leukemia): 33500 nM
- GI50 (COLO 205 colon): 28.7 nM
- TGI (COLO 205 colon): 85.3 nM
- GI50 (DU-145 prostate): 46.8 nM
- TGI (DU-145 prostate): 14000 nM
- GI50 (EKVX NSCLC): 58.7 nM
- TGI (EKVX NSCLC): 17300 nM
- GI50 (HCC-2998 colon): 38.1 nM
- TGI (HCC-2998 colon): 10700 nM
- GI50 (HCT-116 colon): 32.5 nM
- TGI (HCT-116 colon): 4020 nM
- GI50 (HCT-15 colon): 32.2 nM
- TGI (HCT-15 colon): 10900 nM
- GI50 (HL-60(TB) leukemia): 25.4 nM
- TGI (HL-60(TB) leukemia): 78 nM
- GI50 (HOP-62 NSCLC): 41.6 nM
- TGI (HOP-62 NSCLC): 15800 nM
- GI50 (HOP-92 NSCLC): 182 nM
- TGI (HOP-92 NSCLC): 12900 nM
- GI50 (HS 578T breast): 32.7 nM
- TGI (HS 578T breast): 16400 nM
- GI50 (HT29 colon): 31.6 nM
- TGI (HT29 colon): 2290 nM
- GI50 (IGROV1 ovarian): 40.8 nM
- TGI (IGROV1 ovarian): 13900 nM
- GI50 (K-562 leukemia): 28.6 nM
- TGI (K-562 leukemia): 25800 nM
- GI50 (KM12 colon): 36.1 nM
- TGI (KM12 colon): 13600 nM
- GI50 (LOX IMVI melanoma): 31 nM
- TGI (LOX IMVI melanoma): 13100 nM
- GI50 (M14 melanoma): 29.3 nM
- TGI (M14 melanoma): 1720 nM
- GI50 (MALME-3M melanoma): 624 nM
- TGI (MALME-3M melanoma): 22900 nM
- GI50 (MCF7 breast): 32.1 nM
- TGI (MCF7 breast): 12200 nM
- GI50 (MDA-MB-231 breast): 44.4 nM
- TGI (MDA-MB-231 breast): 12300 nM
- GI50 (MDA-MB-435): 15.7 nM
- TGI (MDA-MB-435): 52.7 nM
- GI50 (MOLT-4 leukemia): 42.4 nM
- TGI (MOLT-4 leukemia): 21000 nM
- GI50 (NCI-H226 lung): 839 nM
- TGI (NCI-H226 lung): 6550 nM
- GI50 (NCI-H23 lung): 49.1 nM
- TGI (NCI-H23 lung): 9460 nM
- GI50 (NCI-H460 lung): 36.2 nM
- TGI (NCI-H460 lung): 11900 nM
- GI50 (NCI-H522 lung): 14.2 nM
- TGI (NCI-H522 lung): 358 nM
- GI50 (NCI/ADR-RES ovarian): 23.1 nM
- TGI (NCI/ADR-RES ovarian): 5640 nM
- GI50 (OVCAR-3 ovarian): 39.1 nM
- TGI (OVCAR-3 ovarian): 12400 nM
- GI50 (OVCAR-4 ovarian): 266 nM
- TGI (OVCAR-4 ovarian): 18500 nM
- GI50 (OVCAR-5 ovarian): 55.2 nM
- TGI (OVCAR-5 ovarian): 16200 nM
- GI50 (OVCAR-8 ovarian): 37.1 nM
- TGI (OVCAR-8 ovarian): 14200 nM
- GI50 (PC-3 prostate): 34.6 nM
- TGI (PC-3 prostate): 12600 nM
- GI50 (RPMI-8226 leukemia): 36.9 nM
- TGI (RPMI-8226 leukemia): 5320 nM
- GI50 (RXF 393 renal): 17.5 nM
- TGI (RXF 393 renal): 1060 nM
- GI50 (SF-268 CNS): 112 nM
- TGI (SF-268 CNS): 18700 nM
- GI50 (SF-295 CNS): 25.2 nM
- TGI (SF-295 CNS): 779 nM
- GI50 (SF-539 CNS): 25.2 nM
- TGI (SF-539 CNS): 412 nM
- GI50 (SK-MEL-2 melanoma): 1130 nM
- TGI (SK-MEL-2 melanoma): 18400 nM
- GI50 (SK-MEL-28 melanoma): 3550 nM
- TGI (SK-MEL-28 melanoma): 22200 nM
- GI50 (SK-MEL-5 melanoma): 34.5 nM
- TGI (SK-MEL-5 melanoma): 177 nM
- GI50 (SK-OV-3 ovarian): 258 nM
- TGI (SK-OV-3 ovarian): 9140 nM
- GI50 (SN12C renal): 49.3 nM
- TGI (SN12C renal): 14700 nM
- GI50 (SNB-19 CNS): 43.2 nM
- TGI (SNB-19 CNS): 15800 nM
- GI50 (SNB-75 CNS): 474 nM
- TGI (SNB-75 CNS): 14300 nM
- GI50 (SR leukemia): 33.5 nM
- TGI (SR leukemia): 22000 nM
- GI50 (SW-620 colon): 41.5 nM
- TGI (SW-620 colon): 15800 nM
- GI50 (T-47D breast): 393 nM
- TGI (T-47D breast): 29900 nM
- GI50 (TK-10 renal): 9160 nM
- TGI (TK-10 renal): 24000 nM
- GI50 (U251 CNS): 40.7 nM
- TGI (U251 CNS): 14300 nM
- GI50 (UACC-257 melanoma): 4190 nM
- TGI (UACC-257 melanoma): 25800 nM
- GI50 (UACC-62 melanoma): 20.3 nM
- TGI (UACC-62 melanoma): 16000 nM
- GI50 (UO-31 renal): 97.8 nM
- TGI (UO-31 renal): 16000 nM
